Test results: PubChem BioAssay AID1963840 (Molecular Pharmacology Branch, DTP, NCI, 2024)

System: 695427-040-R-J1-PDC complex spheroid viability
Assay: Anticancer human tumor 695427-040-R-J1-PDC patient-derived colon adenocarcinoma cell line growth inhibition [POLQ]
Settings: for IC50: curve of first compound; for viability, T/C: stronger effect = lower value
Procedure, shortened: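 Three-cell-type spheroids modelling solid tumor plus stroma served as the readout system; POL inhibitors were tested individually and in combination, concentration ranges set by clinical Cmax where known.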

[1] = second compound 0.0316 µM, first compound 0.0316 µM
[2] = second compound 0.0316 µM, first compound 0.1 µM
[3] = second compound 0.0316 µM, first compound 0.316 µM
[4] = second compound 0.0316 µM, first compound 1 µM
[5] = second compound 0.0316 µM, first compound 3.16 µM
[6] = second compound 0.0316 µM, first compound 10 µM
[7] = second compound 0.1 µM, first compound 0.0316 µM
[8] = second compound 0.1 µM, first compound 0.1 µM
[9] = second compound 0.1 µM, first compound 0.316 µM
[10] = second compound 0.1 µM, first compound 1 µM
[11] = second compound 0.1 µM, first compound 3.16 µM
[12] = second compound 0.1 µM, first compound 10 µM
[13] = second compound 0.316 µM, first compound 0.0316 µM
[14] = second compound 0.316 µM, first compound 0.1 µM
[15] = second compound 0.316 µM, first compound 0.316 µM
[16] = second compound 0.316 µM, first compound 1 µM
[17] = second compound 0.316 µM, first compound 3.16 µM
[18] = second compound 0.316 µM, first compound 10 µM
[19] = second compound 1 µM, first compound 0.0316 µM
[20] = second compound 1 µM, first compound 0.1 µM
[21] = second compound 1 µM, first compound 0.316 µM
[22] = second compound 1 µM, first compound 1 µM
[23] = second compound 1 µM, first compound 3.16 µM
[24] = second compound 1 µM, first compound 10 µM
[25] = second compound 3.16 µM, first compound 0.0316 µM
[26] = second compound 3.16 µM, first compound 0.1 µM
[27] = second compound 3.16 µM, first compound 0.316 µM
[28] = second compound 3.16 µM, first compound 1 µM
[29] = second compound 3.16 µM, first compound 3.16 µM
[30] = second compound 3.16 µM, first compound 10 µM
[31] = second compound 10 µM, first compound 0.0316 µM
[32] = second compound 10 µM, first compound 0.1 µM
[33] = second compound 10 µM, first compound 0.316 µM
[34] = second compound 10 µM, first compound 1 µM
[35] = second compound 10 µM, first compound 3.16 µM
[36] = second compound 10 µM, first compound 10 µM
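Also: spheroids exposed to compounds for seven days.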
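For viability, T/C in this document: 100% = DMSO vehicle control viability.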

Structure (SMILES): C#Cc1c(F)ccc2cc(O)cc(-c3ncc4c(N5CC6CCC(C5)N6)nc(OCC56CCCN5CC(F)C6)nc4c3F)c12 (stereo not given) + COC1C(OC(N)=O)C(O)C(Oc2ccc3c(O)c(NC(=O)c4ccc(O)c(CC=C(C)C)c4)c(=O)oc3c2C)OC1(C)C
- IC50 (second compound 0.0316 µM): > 10 µM
- IC50 (second compound 0.1 µM): > 10 µM
- IC50 (second compound 0.316 µM): > 10 µM
- IC50 (second compound 1 µM): > 10 µM
- IC50 (second compound 3.16 µM): > 10 µM
- IC50 (second compound 10 µM): > 10 µM
- viability, T/C [1]: 113%
- viability, T/C [2]: 99.8%
- viability, T/C [3]: 108%
- viability, T/C [4]: 107%
- viability, T/C [5]: 97.3%
- viability, T/C [6]: 96.5%
- viability, T/C [7]: 110%
- viability, T/C [8]: 97.6%
- viability, T/C [9]: 105%
- viability, T/C [10]: 99.9%
- viability, T/C [11]: 102%
- viability, T/C [12]: 84.7%
- viability, T/C [13]: 107%
- viability, T/C [14]: 101%
- viability, T/C [15]: 98.2%
- viability, T/C [16]: 99.2%
- viability, T/C [17]: 95%
- viability, T/C [18]: 90%
- viability, T/C [19]: 101%
- viability, T/C [20]: 97.9%
- viability, T/C [21]: 108%
- viability, T/C [22]: 97.1%
- viability, T/C [23]: 97.1%
- viability, T/C [24]: 91%
- viability, T/C [25]: 105%
- viability, T/C [26]: 109%
- viability, T/C [27]: 98.7%
- viability, T/C [28]: 94.8%
- viability, T/C [29]: 104%
- viability, T/C [30]: 90.7%
- viability, T/C [31]: 107%
- viability, T/C [32]: 104%
- viability, T/C [33]: 104%
- viability, T/C [34]: 95.6%
- viability, T/C [35]: 101%
- viability, T/C [36]: 80.4%

Structure (SMILES): C=CC(=O)N1CCN(c2nc(=O)n(-c3c(C)ccnc3C(C)C)c3nc(-c4c(O)cccc4F)c(F)cc23)C(C)C1 (stereo not given) + COC1C(OC(N)=O)C(O)C(Oc2ccc3c(O)c(NC(=O)c4ccc(O)c(CC=C(C)C)c4)c(=O)oc3c2C)OC1(C)C
- IC50 (second compound 0.0316 µM): > 10 µM
- IC50 (second compound 0.1 µM): > 10 µM
- IC50 (second compound 0.316 µM): > 10 µM
- IC50 (second compound 1 µM): > 10 µM
- IC50 (second compound 3.16 µM): > 10 µM
- IC50 (second compound 10 µM): > 10 µM
- viability, T/C [1]: 99.8%
- viability, T/C [2]: 94.9%
- viability, T/C [3]: 97.9%
- viability, T/C [4]: 106%
- viability, T/C [5]: 113%
- viability, T/C [6]: 105%
- viability, T/C [7]: 104%
- viability, T/C [8]: 102%
- viability, T/C [9]: 106%
- viability, T/C [10]: 111%
- viability, T/C [11]: 118%
- viability, T/C [12]: 122%
- viability, T/C [13]: 106%
- viability, T/C [14]: 101%
- viability, T/C [15]: 102%
- viability, T/C [16]: 116%
- viability, T/C [17]: 112%
- viability, T/C [18]: 107%
- viability, T/C [19]: 109%
- viability, T/C [20]: 102%
- viability, T/C [21]: 105%
- viability, T/C [22]: 110%
- viability, T/C [23]: 119%
- viability, T/C [24]: 117%
- viability, T/C [25]: 103%
- viability, T/C [26]: 109%
- viability, T/C [27]: 100%
- viability, T/C [28]: 107%
- viability, T/C [29]: 125%
- viability, T/C [30]: 107%
- viability, T/C [31]: 111%
- viability, T/C [32]: 92.7%
- viability, T/C [33]: 104%
- viability, T/C [34]: 109%
- viability, T/C [35]: 113%
- viability, T/C [36]: 114%

Structure (SMILES): CCc1cc2c(N3CCc4c(cc(Cn5ccnc5)cc4-c4cn(C)nc4C(F)(F)F)C3=O)ccnc2c(OC)n1 + COC1C(OC(N)=O)C(O)C(Oc2ccc3c(O)c(NC(=O)c4ccc(O)c(CC=C(C)C)c4)c(=O)oc3c2C)OC1(C)C
- IC50 (second compound 0.0316 µM): > 10 µM
- IC50 (second compound 0.1 µM): > 10 µM
- IC50 (second compound 0.316 µM): > 10 µM
- IC50 (second compound 1 µM): > 10 µM
- IC50 (second compound 3.16 µM): > 10 µM
- IC50 (second compound 10 µM): > 10 µM
- viability, T/C [1]: 110%
- viability, T/C [2]: 111%
- viability, T/C [3]: 106%
- viability, T/C [4]: 116%
- viability, T/C [5]: 114%
- viability, T/C [6]: 97.2%
- viability, T/C [7]: 111%
- viability, T/C [8]: 103%
- viability, T/C [9]: 115%
- viability, T/C [10]: 109%
- viability, T/C [11]: 116%
- viability, T/C [12]: 105%
- viability, T/C [13]: 111%
- viability, T/C [14]: 116%
- viability, T/C [15]: 108%
- viability, T/C [16]: 101%
- viability, T/C [17]: 109%
- viability, T/C [18]: 95.6%
- viability, T/C [19]: 116%
- viability, T/C [20]: 112%
- viability, T/C [21]: 109%
- viability, T/C [22]: 98.3%
- viability, T/C [23]: 111%
- viability, T/C [24]: 101%
- viability, T/C [25]: 103%
- viability, T/C [26]: 104%
- viability, T/C [27]: 107%
- viability, T/C [28]: 105%
- viability, T/C [29]: 117%
- viability, T/C [30]: 101%
- viability, T/C [31]: 111%
- viability, T/C [32]: 92.7%
- viability, T/C [33]: 108%
- viability, T/C [34]: 106%
- viability, T/C [35]: 113%
- viability, T/C [36]: 96.3%

Structure (SMILES): COc1cc2cc(C(=O)CCC(=O)O)sc2cc1OC + COC1C(OC(N)=O)C(O)C(Oc2ccc3c(O)c(NC(=O)c4ccc(O)c(CC=C(C)C)c4)c(=O)oc3c2C)OC1(C)C
- IC50 (second compound 0.0316 µM): > 10 µM
- IC50 (second compound 0.1 µM): > 10 µM
- IC50 (second compound 0.316 µM): > 10 µM
- IC50 (second compound 1 µM): > 10 µM
- IC50 (second compound 3.16 µM): > 10 µM
- IC50 (second compound 10 µM): > 10 µM
- viability, T/C [1]: 98.3%
- viability, T/C [2]: 86.9%
- viability, T/C [3]: 101%
- viability, T/C [4]: 104%
- viability, T/C [5]: 112%
- viability, T/C [6]: 107%
- viability, T/C [7]: 117%
- viability, T/C [8]: 103%
- viability, T/C [9]: 106%
- viability, T/C [10]: 99.2%
- viability, T/C [11]: 109%
- viability, T/C [12]: 103%
- viability, T/C [13]: 108%
- viability, T/C [14]: 105%
- viability, T/C [15]: 99.8%
- viability, T/C [16]: 107%
- viability, T/C [17]: 101%
- viability, T/C [18]: 99.3%
- viability, T/C [19]: 104%
- viability, T/C [20]: 109%
- viability, T/C [21]: 100%
- viability, T/C [22]: 106%
- viability, T/C [23]: 101%
- viability, T/C [24]: 103%
- viability, T/C [25]: 102%
- viability, T/C [26]: 94.2%
- viability, T/C [27]: 97.4%
- viability, T/C [28]: 106%
- viability, T/C [29]: 103%
- viability, T/C [30]: 93.8%
- viability, T/C [31]: 102%
- viability, T/C [32]: 102%
- viability, T/C [33]: 114%
- viability, T/C [34]: 120%
- viability, T/C [35]: 104%
- viability, T/C [36]: 109%

Structure (SMILES): O=C(Nc1ccc(O)c(NS(=O)(=O)c2ccc(F)cc2)c1)c1ccc(-c2ccccc2)cc1 + COC1C(OC(N)=O)C(O)C(Oc2ccc3c(O)c(NC(=O)c4ccc(O)c(CC=C(C)C)c4)c(=O)oc3c2C)OC1(C)C
- IC50 (second compound 0.0316 µM): > 10 µM
- IC50 (second compound 0.1 µM): > 10 µM
- IC50 (second compound 0.316 µM): > 10 µM
- IC50 (second compound 1 µM): > 10 µM
- IC50 (second compound 3.16 µM): > 10 µM
- IC50 (second compound 10 µM): > 10 µM
- viability, T/C [1]: 104%
- viability, T/C [2]: 97.7%
- viability, T/C [3]: 105%
- viability, T/C [4]: 103%
- viability, T/C [5]: 103%
- viability, T/C [6]: 89.3%
- viability, T/C [7]: 116%
- viability, T/C [8]: 99.9%
- viability, T/C [9]: 106%
- viability, T/C [10]: 102%
- viability, T/C [11]: 103%
- viability, T/C [12]: 95.8%
- viability, T/C [13]: 103%
- viability, T/C [14]: 103%
- viability, T/C [15]: 110%
- viability, T/C [16]: 105%
- viability, T/C [17]: 104%
- viability, T/C [18]: 104%
- viability, T/C [19]: 110%
- viability, T/C [20]: 107%
- viability, T/C [21]: 107%
- viability, T/C [22]: 106%
- viability, T/C [23]: 108%
- viability, T/C [24]: 90.8%
- viability, T/C [25]: 108%
- viability, T/C [26]: 101%
- viability, T/C [27]: 102%
- viability, T/C [28]: 110%
- viability, T/C [29]: 115%
- viability, T/C [30]: 89.7%
- viability, T/C [31]: 104%
- viability, T/C [32]: 100%
- viability, T/C [33]: 112%
- viability, T/C [34]: 105%
- viability, T/C [35]: 114%
- viability, T/C [36]: 88.3%
